This passage reports IC50 results from US20080176862A1, “New Compounds 617” (ASTRAZENECA AB, priority 2006, published 2008).

Where a name gives a salt, the structure may show the parent alone.

This experiment deals with T1, human β-Secretase (soluble part, AA1-AA460; sBACE-Fc) (Homo sapiens, UniProt P56817).
T1 construct: The soluble part of the human β-Secretase (AA1-AA460) was cloned into the ASP2-Fc10-1-IRES-GFP-neoK mammalian expression vector; made in house
T1 sequence (P56817 22-460): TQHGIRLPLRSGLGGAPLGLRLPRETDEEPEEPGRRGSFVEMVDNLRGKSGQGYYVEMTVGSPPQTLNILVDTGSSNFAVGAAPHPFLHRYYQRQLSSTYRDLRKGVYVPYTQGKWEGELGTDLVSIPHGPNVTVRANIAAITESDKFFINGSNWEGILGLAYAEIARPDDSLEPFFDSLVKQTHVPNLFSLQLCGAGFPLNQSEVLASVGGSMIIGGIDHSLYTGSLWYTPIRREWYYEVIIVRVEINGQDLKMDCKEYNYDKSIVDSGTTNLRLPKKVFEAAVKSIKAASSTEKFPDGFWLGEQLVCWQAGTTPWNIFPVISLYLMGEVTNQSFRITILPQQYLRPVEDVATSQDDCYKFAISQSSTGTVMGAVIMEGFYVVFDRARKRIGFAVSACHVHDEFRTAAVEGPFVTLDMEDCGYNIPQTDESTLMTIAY
Put plainly: TR-FRET assay. In kind it is biochemical. The settings on record: substrate (Europium)CEVNLDAEFK(Qsy7) 100 nM, pH 4.5, 15 min at RT; read-out: IC50 (nM) in TR-FRET assay.
The IC50 is the concentration at which inhibition is half-maximal. Turning to `COc1ccc(C#N)c(-c2cccc(C3(c4cccc(OS(C)(=O)=O)c4)N=C(N)N(C)C3=O)c2)c1` (centres unmarked) [Example 176, 3-[2-Amino-4-(2′-cyano-5′-methoxybiphenyl-3-yl)-1-methyl-5-oxo-4,5-dihydro-1H-imidazol-4-yl]phenyl methanesulfonate hydrochloride], the concentration for half-maximal inhibition (IC50) is 148 nM.
Under `CN1C(=O)C(c2ccc(OC(F)(F)F)cc2)(c2cccc(-c3cc(Cl)cc(OS(C)(=O)=O)c3)c2)N=C1N` (centres unmarked) [Example 59, 3′-{2-Amino-1-methyl-5-oxo-4-[4-(trifluoromethoxy)phenyl]-4,5-dihydro-1H-imidazol-4-yl}-5-chlorobiphenyl-3-ylmethanesulfonate] stands 128 nM; under `CCC(C)(C)c1ccc(S(=O)(=O)Oc2ccc(C3(c4ccc(F)c(-c5cccnc5)c4)N=C(N)N(C)C3=O)cc2)cc1` (centres unmarked) [Example 281, 4-[2-Amino-4-(4-fluoro-3-pyridin-3-ylphenyl)-1-methyl-5-oxo-4,5-dihydro-1H-imidazol-4-yl]phenyl 4-(1,1-dimethylpropyl)benzenesulfonate], 79 nM.
With `CN1C(=O)C(c2cccc(OS(C)(=O)=O)c2)(c2ccc(F)c(-c3cccc(Cl)c3)c2)N=C1N` (centres unmarked) [Example 91, 3-[2-Amino-4-(3′-chloro-6-fluorobiphenyl-3-yl)-1-methyl-5-oxo-4,5-dihydro-1H-imidazol-4-yl]phenyl methanesulfonate], the IC50 is 228 nM.
Consider `CN1C(=O)C(c2cccc(OS(C)(=O)=O)c2)(c2ccc(F)c(-c3cccnc3)c2)N=C1N` (centres unmarked) [Example 90, 3-[2-Amino-4-(4-fluoro-3-pyridin-3-ylphenyl)-1-methyl-5-oxo-4,5-dihydro-1H-imidazol-4-yl]phenylmethanesulfonate], for which the IC50 stood at 385 nM.
`CN1C(=O)C(c2ccc(OS(=O)(=O)c3ccccc3)cc2)(c2ccc(F)c(Br)c2)N=C1N` (centres unmarked) [Example 184, 4-[2-Amino-4-(3-bromo-4-fluorophenyl)-1-methyl-5-oxo-4,5-dihydro-1H-imidazol-4-yl]phenyl benzenesulfonate]: the IC50 turned out to be 156 nM.
Under `CN1C(=O)C(c2cccc(OS(C)(=O)=O)c2)(c2cccc(-c3cnccc3Cl)c2)N=C1N` (centres unmarked) [Example 170, 3-{2-Amino-4-[3-(4-chloropyridin-3-yl)phenyl]-1-methyl-5-oxo-4,5-dihydro-1H-imidazol-4-yl}phenyl methanesulfonate hydrochloride] stands 651 nM.
Under `COc1cc(OS(C)(=O)=O)cc(-c2cccc(C3(c4ccc(OC(F)(F)F)cc4)N=C(N)N(C)C3=O)c2)c1` (centres unmarked) [Example 58, 3′-{2-Amino-1-methyl-5-oxo-4-[4-(trifluoromethoxy)phenyl]-4,5-dihydro-1H-imidazol-4-yl}-5-methoxybiphenyl-3-ylmethanesulfonate] stands 81 nM.
In the case of `CN1C(=O)C(c2cccc(-c3cc(Cl)cc(OS(C)(=O)=O)c3)c2)(c2ccnc(Cl)c2)N=C1N` (centres unmarked) [Example 311, 3′-(2-Amino-4-(2-chloropyridin-4-yl)-1-methyl-5-oxo-4,5-dihydro-1H-imidazol-4-yl)-5-chlorobiphenyl-3-yl methanesulfonate hydrochloride] it was 24 nM.
`CCc1ccc(C2(c3ccc(F)c(-c4cncnc4)c3)N=C(N)N(C)C2=O)cc1OS(C)(=O)=O` (centres unmarked) [Example 253, 5-[2-Amino-4-(4-fluoro-3-pyrimidin-5-ylphenyl)-1-methyl-5-oxo-4,5-dihydro-1H-imidazol-4-yl]-2-ethylphenyl methanesulfonate 0.5 acetate]: the IC50 turned out to be 96 nM.
In the case of `CN1C(=O)C(c2ccc(OS(=O)(=O)C(F)(F)F)cc2)(c2ccc(F)c(-c3cccnc3F)c2)N=C1N` (centres unmarked) [Example 142, 4-{2-Amino-4-[4-fluoro-3-(2-fluoropyridin-3-yl)phenyl]-1-methyl-5-oxo-4,5-dihydro-1H-imidazol-4-yl}phenyl trifluoromethanesulfonate 0.75 acetate] it was 140 nM; in that of `COc1cc(C#N)cc(-c2cc(C3(c4ccc(OS(C)(=O)=O)cc4)N=C(N)N(C)C3=O)ccc2F)c1` (centres unmarked) [Example 71, 4-[2-Amino-4-(3′-cyano-6-fluoro-5′-methoxybiphenyl-3-yl)-1-methyl-5-oxo-4,5-dihydro-1H-imidazol-4-yl]phenyl methanesulfonate hydrochloride], 41 nM; in that of `CN1C(=O)C(c2cccc(OS(=O)(=O)c3ccccn3)c2)(c2ccc(F)c(-c3cncnc3)c2)N=C1N` (centres unmarked) [Example 237, 3-[2-Amino-4-(4-fluoro-3-pyrimidin-5-ylphenyl)-1-methyl-5-oxo-4,5-dihydro-1H-imidazol-4-yl]phenyl pyridine-2-sulfonate], 124 nM.
Consider `Cc1noc(C)c1S(=O)(=O)Oc1ccc(C2(c3ccc(F)c(-c4cncnc4)c3)N=C(N)N(C)C2=O)cc1` (centres unmarked) [Example 280, 4-[2-amino-4-(4-fluoro-3-pyrimidin-5-ylphenyl)-1-methyl-5-oxo-4,5-dihydro-1H-imidazol-4-yl]phenyl 3,5-dimethylisoxazole-4-sulfonate], for which the IC50 came out at 234 nM.
Turning to `CN1C(=O)C(c2cccc(OS(C)(=O)=O)c2)(c2cccc(C3=CCCC3)c2)N=C1N` (centres unmarked) [Example 195, 3-[2-Amino-4-(3-cyclopent-1-en-1-yl-phenyl)-1-methyl-5-oxo-4,5-dihydro-1H-imidazol-4-yl]phenyl methanesulfonate hydrochloride], the IC50 is 646 nM.
In the case of `CN1C(=O)C(c2cccc(OS(=O)(=O)c3ccc4c(c3)oc(=O)n4C)c2)(c2ccc(F)c(-c3cncnc3)c2)N=C1N` (centres unmarked) [Example 240, 3-[2-Amino-4-(4-fluoro-3-pyrimidin-5-ylphenyl)-1-methyl-5-oxo-4,5-dihydro-1H-imidazol-4-yl]phenyl 3-methyl-2-oxo-2,3-dihydro-1,3-benzoxazole-6-sulfonate] it was 20 nM; in that of `CC(C)S(=O)(=O)Oc1cccc(C2(c3ccc(F)c(-c4cc(Cl)cnc4F)c3)N=C(N)N(C)C2=O)c1` (centres unmarked) [Example 103, 3-{2-Amino-4-[3-(5-chloro-2-fluoropyridin-3-yl)-4-fluorophenyl]-1-methyl-5-oxo-4,5-dihydro-1H-imidazol-4-yl}phenyl propane-2-sulfonate], 227 nM; in that of `COc1ccc(OC)c(S(=O)(=O)Oc2ccc(C3(c4ccc(F)c(-c5cccnc5)c4)N=C(N)N(C)C3=O)cc2)c1` (centres unmarked) [Example 282, 4-[2-Amino-4-(4-fluoro-3-pyridin-3-ylphenyl)-1-methyl-5-oxo-4,5-dihydro-1H-imidazol-4-yl]phenyl 2,5-dimethoxybenzenesulfonate0.25 acetate], 59 nM.
Consider `COc1ccnc(-c2cc(C3(c4ccc(OS(C)(=O)=O)cc4)N=C(N)N(C)C3=O)ccc2F)n1` (centres unmarked) [Example 6, 4-{2-Amino-4-[4-fluoro-3-(4-methoxypyrimidin-2-yl)phenyl]-1-methyl-5-oxo-4,5-dihydro-1H-imidazol-4-yl}phenyl methanesulfonate 0.25 acetate], for which the IC50 was 834 nM.
On to `CCCN1C(=O)C(c2ccc(OS(C)(=O)=O)cc2)(c2ccc(F)c(-c3cncnc3)c2)N=C1N` (centres unmarked) [Example 165, 4-[2-Amino-4-(4-fluoro-3-pyrimidin-5-ylphenyl)-1-propyl-5-oxo-4,5-dihydro-1H-imidazol-4-yl]phenyl methanesulfonate 0.5 acetate], for which the half-inhibitory concentration (IC50) turned out to be 589 nM.
